The results in this text go back to US20040214803A1, “Use of vitamin d3 analogue for the treatment of autoimmune diabetes” (priority 2001, published 2004).

Each structure is given as a SMILES string.

The subject of one experiment is IL-12p75. Nature of the experiment: LPS-induced IL-12 production in vivo (serum ELISA). Further details: species or system mouse. As to the method: (§1) Lymphokine production was induced in 8 week-old female NOD mice by i.p. injection of 400 μg/mouse Salmonella abortus equi LPS (Sigma). Compound A was administered 72, 48, 24, and 1 h prior to LPS. Blood samples were collected 3 h post LPS injection and serum cytokines measured by ELISA.
(§2) Cytokines were quantified by two-sites ELISA. IFN-γ was determined using paired mAb from PharMingen (San Diego, Calif.). For capture, the mAb was AN-18.17.24. Samples were titrated and incubated overnight at 4° C. To detect bound IFN-γ plates were then incubated with biotinylated XMG1.2 mAb. […] The plates were washed again and incubated with the developing substrate p-nitrophenylphosphate disodium (Sigma) in diethanolamine buffer (pH 9.6; 100 μl/well). The reaction was stopped by adding 50 μl/well NaOH 3N, and absorbance was read at 405 nm. ELISA for IL-12p75 was performed as described (Gately, M. K., et al., Current Protocols Immunol. 1995, 3, 15:6.16.11-16.16.15). Cytokines were quantified from two to three titration points using standard curves generated by purified recombinant mouse cytokines and results expressed as cytokine concentration in ng or pg/ml. Detection limits were 15 pg/ml for both cytokines. […]
(§3) FIG. 3. […] IFN-γ, IL-12p75 and serum calcium levels were quantified 3 h post LPS injection. […] The P values were calculated by Mann-Whitney U test (* indicates P<0.05 vs. vehicle-treated NOD mice).

The next experiment deals with IFN-γ. The experiment can be described thus: LPS-induced IFN-γ production in vivo (serum ELISA). Set-up: species or system mouse. The settings on record: 0.03 μg/Kg per os 72, 48, 24, 1 h before LPS; serum 3 h post LPS. As to the method:
as §1, §2, §3

A further experiment has as its system CD4+ T cells. Nature of the experiment: Flow cytometric analysis of surface molecules on CD4+ cells from treated NOD mice. It is filed as in vivo, mouse. As to the method:
Single-cell suspensions of pancreas-infiltrating, spleen or lymph node cells were incubated with anti-CD4 mAb-coated Microbeads (Miltenyi Biotec) and applied onto Mini-MACS columns (Miltenyi Biotec). Stainings were performed in the presence of 100 μg/ml mouse IgG using the following mAbs, all from PharMingen: CyChrome-labeled Streptavidin, FITC-labeled anti-CD4 (L3T4), PE-labeled anti-CD45RB (16A), PE-labeled anti-CD62L (MEL-14), PE-labeled anti-CD38 (rat IgG2a), FITC-labeled anti-CD69 (H1.2F3), and biotinylated anti-CD25 (7D4). Cells were analyzed with a FACScan flow cytometer equipped with CellQuest software (Becton Dickinson, Mountain View, Calif.).
Therefore, we analyzed the frequency of CD4^+ CD25^+ cells in 1,25-dihydroxy-16,23Z-diene-26,27-hexafluoro-19-nor vitamin D3-treated NOD mice. No difference was found in the percentage of splenic CD4^+ cells expressing CD25, CD38, CD69, CD62L and CD45RB in 20 week-old Compound A or vehicle-treated and untreated 8 week-old NOD mice (FIG. 6A).
FIG. 6. (page 6/9) Compound A treatment enhances the frequency of CD4^+ CD25^+ cells. Positively selected CD4^+ T cells were stained with mAbs specific for the indicated surface molecules and analyzed by flow cytometry. Acquisition was performed on CD4^+ cells. Bars represent the percent of spleen and lymph node CD4^+ T cells expressing the indicated surface molecules from untreated 8 week-old (□) or 20 week-old NOD mice treated 5×/week from 8 to 16 weeks of age with vehicle ( ? ) or with 0.03 μg/Kg Compound A (▪). Data are presented as mean ±SE of three separate experiments. The P values were calculated by Mann-Whitney U test (* indicates P<0.05 vs. 8 week-old NOD mice).

Experiment [1] deals with pancreas-infiltrating cells. Nature of the experiment: Cytofluorimetric analysis of pancreas-infiltrating cells. The settings on record: among 8 week-old, vehicle-treated and treated mice at 30 weeks. It is filed as in vivo, mouse. As for the experimental part: After removal of all visible pancreatic lymph nodes, pancreata were individually digested in 3 ml HBSS containing 1 mg/ml collagenase IV (Sigma), by shaking (200 rpm) at 37° C. for 15 min. Single cell suspensions were collected after diluting the enzyme with ice-cold HBSS containing 5% FCS (FETAL CALF SERUM) and removal of the aggregates by settling for 2 min on ice. Aggregates were further digested with collagenase IV at 0.5 mg/ml for 10 min, and at 0.25 mg/ml for 6 min. Single cell suspensions were washed three times, and passed over a MASC Pre-separation filter (Miltenyi Biotec) to remove cell aggragetes and clumps. […]
Single-cell suspensions of pancreas-infiltrating, spleen or lymph node cells were incubated with anti-CD4 mAb-coated Microbeads (Miltenyi Biotec) and applied onto Mini-MACS columns (Miltenyi Biotec). […] Cells were analyzed with a FACScan flow cytometer equipped with CellQuest software (Becton Dickinson, Mountain View, Calif.).
B. Consecutive sections of the same islets were stained with anti-CD4, anti-CD8, anti-B220, anti-CD11b (Mac-1), and anti-CD11c (N418) mAbs. […] Pancreas-infiltrating cells isolated from untreated 8 week-old NOD mice, vehicle-treated and Compound A treated NOD mice at 30 weeks of age were stained with mAbs specific for the indicated surface molecules and analyzed by flow cytometry. […]

For `C[C@H](C/C=C\C(O)(C(F)(F)F)C(F)(F)F)C1=CC[C@H]2/C(=C/C=C3C[C@@H](O)C[C@H](O)C3)CCC[C@]12C` [Compound A, 1,25-dihydroxy-16,23Z-diene-26,27-hexafluoro-19-nor vitamin D3], the “LPS-induced IL-12p75 production” value with IL-12p75 (0.03 μg/Kg per os 72, 48, 24, 1 h before LPS, serum 3 h post LPS) is on record as “inhibited significantly”. Besides, in the experiment on IL-12p75 (higher than 1,25(OH)2D3 (literature comparison)), the “potency in inhibiting LPS-induced IL-12p75 and IFN-γ production relative to 1,25(OH)2D3” value is listed as “about 100 fold”. In the experiment on IFN-γ, the “LPS-induced IFN-γ production” value is recorded as “inhibited significantly”. In the experiment on CD4+ T cells (20 week-old mice, vs vehicle-treated and untreated 8 week-old), the “percentage of splenic CD4+ cells expressing CD25, CD38, CD69, CD62L and CD45RB” value is reported as “No difference”. The “percentage of CD45RBhigh” value in the experiment on CD4+ T cells (pancreatic lymph node CD4+ cells, 8 week-old 75.9±0.5%, vehicle 74.2±1.6) stood at 65.1±0.3%. In the experiment with CD4+ T cells (pancreatic lymph node cells, 8 week-old 11.6±0.1%, vehicle 13.0±0.1), the “percentage of CD4+ CD25+” value turned out to be 20.1±0.1%. The “percentage of CD4+ CD38+” value in the experiment with CD4+ T cells (pancreatic lymph node cells, 8 week-old 11.8±0.1%, vehicle 10.6±1.0) worked out at 25.2±0.2%. For the same compound, the “percentage of CD45RBlow CD4+ cells” value in the experiment on CD4+ T cells (pancreatic lymph node cells, 8 week-old 12.65±0.43%, vehicle 34.8±0.01) was found to be 24.1±0.22%. The “double positive CD25+ CD38+ CD4+ cells” value with CD4+ T cells (pancreatic lymph node, 8 week-old 8%, vehicle 7%) was determined as 17%. The “percentage of CD4+, CD8+, B220+, CD11b+ and CD11c+ pancreas-infiltrating cells” value in experiment [1] was “no difference”.
